Measurements from US20060229433A1, “Modified antiviral peptides with increased activity and cell membrane affinity” (priority 2003, published 2006).
Values joined by “and” are separate entries in the source; they are usually repeats but may differ in a detail not shown here. Equal values may be shown once. Square brackets hold non-standard residues; d marks the D form. Peptide text beside a SMILES is read from it. Ava = NCCCCC(=O)O

What was measured:
Type in all cases: cell-based
[1] = tested on: HIV-1 NL 4-3; assay: HIV-1 infection of C8166 cells (syncytia formation, p24 ELISA) with HIV-1 NL 4-3; parameters: key to syncitia formed, Day 4 / syncitia formed, Day 5 / syncitia formed, Day 6 / syncitia formed, Day 7: ++, +, (+), (+)− and − represent decreasing numbers of syncitia formed; ++, +, (+), (+)− and − represent decreasing numbers of syncitia formed; ++, +, (+), (+)− and − represent decreasing numbers of syncitia formed; ++, +, (+), (+)− and − represent decreasing numbers of syncitia formed; ++, +, (+), (+)− and − represent decreasing numbers of syncitia formed
In short: (§1)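 C8166 T-cells were preincubated with peptide for 1 h at 37 °C, then exposed for 1 h to HIV-1 at 1000 TCID50/ml, washed, and cultured with peptide kept present throughout, with medium replaced at day 4. Infection was scored by syncytia formation and by supernatant p24 ELISA, with at least two runs in duplicate.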

[2] = tested on: HIV-1 NDK; assay: HIV-1 infection of C8166 cells (syncytia formation, p24 ELISA) with HIV-1 NDK; parameters: key to syncitia formed, Day 4 / syncitia formed, Day 5 / syncitia formed, Day 6 / syncitia formed, Day 7: ++, +, (+), (+)− and − represent decreasing numbers of syncitia formed; ++, +, (+), (+)− and − represent decreasing numbers of syncitia formed; ++, +, (+), (+)− and − represent decreasing numbers of syncitia formed; ++, +, (+), (+)− and − represent decreasing numbers of syncitia formed; ++, +, (+), (+)− and − represent decreasing numbers of syncitia formed; conditions: for P 24: P 24 after Day 7
Experimental: HIV-1 NL 4-3 isolate (Adachi et al., 1986; Barré-Sinoussi et al., 1983) and highly cytopathic Zairian HIV-1 NDK isolate (Ellrodt et al., 1984) was propagated in permissive CEM cells (Nara et al., 1987). Uninfected CEM and C8166 (Salahuddin et al., 1983) were maintained in RPMI 1640 (R10) with ultraglutamine (cambrex, Vervier, Belgium), penicillin (100 U/ml), streptomycin (100 μg/ml), and 10% heat-inactivated fetal calf serum (Cambrex).
Samples of 3×10^5/100 μL C8166 cells were preincubated in 96-well microtiter plates in culture medium containing various concentrations of peptide. After a 1 h treatment at 37° C., 100 μl of diluted viral solution of HIV-1 was added. The cells were exposed to the virus for 1 h at 37° C. at a multiplicity of infection of 1000 TCID50 per ml. The cells were washed three times and cultured at 3×10^5/ml of R10 with the treatment in 24-well plates incubated at 37° C. C8166 culture medium was replaced at Day-4 post-infection. The treatment was permanent before virus adsorption, during virus adsorption and after infection. Assays on C8166 cells have been performed at least twice and in duplicate. Toxicity was evaluated by daily cell count and trypan-blue exclusion assay. Infection of C8166 T-cells with HIV-1 was assessed by virus-induced cytopathic effects (syncytia formation) and by quantification of cell free p24 viral protein in the culture supernatants. Measurements of HIV-1 p24^gag concentration in the culture supernatants were achieved by ELISA (ALLIANCE® HIV-1 p24 kit, Perkin Elmer, life sciences, USA).

[3] = tested on: HIV-1 NL 4-3; assay: HIV-1 infection of C8166 cells (syncytia formation, p24 ELISA) with HIV-1 NL 4-3; parameters: key: ++, +, (+), (+)− and − represent decreasing numbers of syncitia formed; ++, +, (+), (+)− and − represent decreasing numbers of syncitia formed; ++, +, (+), (+)− and − represent decreasing numbers of syncitia formed; ++, +, (+), (+)− and − represent decreasing numbers of syncitia formed; ++, +, (+), (+)− and − represent decreasing numbers of syncitia formed; conditions: Table 6
In short: as §1

N=C(N)NCCC[C@H](NC(=O)CNC(=O)[C@@H]1CCCN1C(=O)CN)C(=O)NCCCCC(=O)O [GPGR valeric acid, GPGR-NHCH2CH2CH2CH2COOH] (H-GPGR[Ava]-OH; N-terminus assumed)
3810 pg/mL: P 24 ([2]; 5 μM)
9840 pg/mL and 11830 pg/mL: P 24 ([1]; Day 7, 0.05 μM, Table 6)
++: syncitia formed, Day 6 ([1]; 0.01 μM, C8166 cells) | syncitia formed, Day 7 ([1]; 0.05 μM, Day 7, C8166 cells) | syncitia formed, Day 6 ([2]; 0.005 μM) | syncitia formed, Day 7 ([2]; 0.005 μM) | syncitia formed, Day 6 ([2]; 0.01 μM) | syncitia formed, Day 7 ([2]; 0.01 μM) | syncitia formed, Day 6 ([2]; 0.05 μM) | syncitia formed, Day 7 ([2]; 0.05 μM) | syncitia formed, Day 6 ([2]; 0.1 μM) | syncitia formed, Day 7 ([2]; 0.1 μM) | syncitia formed, Day 7 ([2]; 0.5 μM) | syncitia formed, Day 7 ([2]; 1 μM) | Day 6 syncitia formed ([3]; 0.005 μM) | Day 7 syncitia formed ([3]; 0.005 μM) | Day 6 syncitia formed ([3]; 0.01 μM) | Day 7 syncitia formed ([3]; 0.01 μM) | Day 7 syncitia formed ([3]; 0.05 μM)
9860 pg/mL and 17800 pg/mL: P 24 ([1]; 0.05 μM, P 24 after Day 7, C8166 cells)
2.36 pg/mL and 2.4 pg/mL: P 24 ([1]; Day 7, 5 μM, Table 6)
+: syncitia formed, Day 5 ([1]; 0.01 μM, C8166 cells) | syncitia formed, Day 6 ([1]; 0.05 μM, C8166 cells) | syncitia formed, Day 6 ([1]; 0.1 μM, C8166 cells) | syncitia formed, Day 7 ([1]; 0.1 μM, Day 7, C8166 cells) | syncitia formed, Day 7 ([1]; 0.5 μM, Day 7, C8166 cells) | syncitia formed, Day 5 ([2]; 0.005 μM) | syncitia formed, Day 5 ([2]; 0.01 μM) | syncitia formed, Day 6 ([2]; 0.5 μM) | syncitia formed, Day 6 ([2]; 1 μM) | syncitia formed, Day 7 ([2]; 5 μM) | Day 5 syncitia formed ([3]; 0.005 μM) | Day 5 syncitia formed ([3]; 0.01 μM) | Day 6 syncitia formed ([3]; 0.05 μM) | Day 6 syncitia formed ([3]; 0.1 μM) | Day 7 syncitia formed ([3]; 0.1 μM) | Day 7 syncitia formed ([3]; 0.5 μM) | Day 7 syncitia formed ([3]; 1 μM)
2840 pg/mL and 3810 pg/mL: P 24 ([2]; 1 μM)
>5 µM: IC100 ([2]; HIV 1 NDK, Table 10)
(+): syncitia formed, Day 5 ([1]; 0.05 μM, C8166 cells) | syncitia formed, Day 5 ([1]; 0.1 μM, C8166 cells) | syncitia formed, Day 4 ([2]; 0.005 μM) | syncitia formed, Day 4 ([2]; 0.01 μM) | syncitia formed, Day 5 ([2]; 0.05 μM) | syncitia formed, Day 5 ([2]; 0.1 μM) | syncitia formed, Day 6 ([2]; 5 μM) | Day 5 syncitia formed ([3]; 0.05 μM) | Day 5 syncitia formed ([3]; 0.1 μM)
300 nM: IC50 ([2]; HIV 1 NDK, Table 10)
104 pg/mL and 179 pg/mL: P 24 ([1]; Day 7, 1 μM, Table 6)
++/T and ++: syncitia formed, Day 7 ([1]; 0.01 μM, Day 7, C8166 cells)
17890 pg/mL and 23810 pg/mL: P 24 ([2]; 0.1 μM)
21800 pg/mL and 23810 pg/mL: P 24 ([1]; Day 7, 0.01 μM, Table 6)
433 pg/mL and 507 pg/mL: P 24 ([1]; Day 7, 0.1 μM, Table 6)
23810 pg/mL: P 24 ([1]; Day 7, 0.005 μM, Table 6) | P 24 ([2]; 0.005 μM) | P 24 ([2]; 0.01 μM) | P 24 ([2]; 0.05 μM)
2740 pg/mL and 2840 pg/mL: P 24 ([1]; 0.5 μM, P 24 after Day 7, C8166 cells)
53 pg/mL and 64 pg/mL: P 24 ([1]; 1 μM, P 24 after Day 7, C8166 cells)
2 pg/mL: P 24 ([1]; 5 μM, P 24 after Day 7, C8166 cells)
−: syncitia formed, Day 4 ([1]; 0.01 μM, C8166 cells) | syncitia formed, Day 4 ([1]; 0.05 μM, C8166 cells) | syncitia formed, Day 4 ([1]; 0.1 μM, C8166 cells) | syncitia formed, Day 4 ([1]; 0.5 μM, C8166 cells) | syncitia formed, Day 5 ([1]; 0.5 μM, C8166 cells) | syncitia formed, Day 6 ([1]; 0.5 μM, C8166 cells) | syncitia formed, Day 4 ([1]; 1 μM, C8166 cells) | syncitia formed, Day 5 ([1]; 1 μM, C8166 cells) | syncitia formed, Day 6 ([1]; 1 μM, C8166 cells) | syncitia formed, Day 7 ([1]; 1 μM, Day 7, C8166 cells) | syncitia formed, Day 4 ([1]; 5 μM, C8166 cells) | syncitia formed, Day 5 ([1]; 5 μM, C8166 cells) | syncitia formed, Day 6 ([1]; 5 μM, C8166 cells) | syncitia formed, Day 7 ([1]; 5 μM, Day 7, C8166 cells) | syncitia formed, Day 4 ([2]; 0.05 μM) | syncitia formed, Day 4 ([2]; 0.1 μM) | syncitia formed, Day 4 ([2]; 0.5 μM) | syncitia formed, Day 5 ([2]; 0.5 μM) | syncitia formed, Day 4 ([2]; 1 μM) | syncitia formed, Day 5 ([2]; 1 μM) | syncitia formed, Day 4 ([2]; 5 μM) | syncitia formed, Day 5 ([2]; 5 μM) | Day 4 syncitia formed ([3]; 0.005 μM) | Day 4 syncitia formed ([3]; 0.01 μM) | Day 4 syncitia formed ([3]; 0.05 μM) | Day 4 syncitia formed ([3]; 0.1 μM) | Day 4 syncitia formed ([3]; 0.5 μM) | Day 5 syncitia formed ([3]; 0.5 μM) | Day 6 syncitia formed ([3]; 0.5 μM) | Day 4 syncitia formed ([3]; 1 μM) | Day 5 syncitia formed ([3]; 1 μM) | Day 6 syncitia formed ([3]; 1 μM) | Day 4 syncitia formed ([3]; 5 μM) | Day 5 syncitia formed ([3]; 5 μM) | Day 6 syncitia formed ([3]; 5 μM) | Day 7 syncitia formed ([3]; 5 μM)
